Assay results taken from US5593656A, “Metal-binding targeted polypeptide constructs” (Cytogen Corporation, priority 1995, dated 1997).

Tests used:
[1] = biological target: T1, I-125-GRP binding to NIH-3T3 cells (Mus musculus, UniProt P21729); assay: In vitro receptor binding assay: inhibition of binding of I-125-GRP to NIH-3T3 cells; parameters: species or system Murine; conditions: for IC50: […] 125I-GRP, 30 min RT, read-out: IC50, inhibition of binding of labeled GRP to NIH-3T3 cells; for Binding of competing ligand relative to control ligand Neuromedin C: competition with 125I-GRP
T1 construct: Murine NIH-3T3 fibroblast cells (ATCC No. CCL92) were released from flasks; endogenous in cells; host or cells: NIH-3T3 murine fibroblasts (ATCC No. CCL92), whole cells
Experimental: Murine NIH-3T3 fibroblast cells (ATCC No. CCL92) were released from flasks with EDTA harvest buffer, consisting of 0.6 mm EDTA, 25 mm PBS (8 g NaCl, 0.2 g KCl, 1.44 g Na2 PO4, 0.2 g KH2 PO4 per liter), pH 7.4, 37° C., by incubation for 15 min.
The cells were washed twice with Assay Buffer (50 mM Tris-HCl, 100 mM NaCl, 0.1% BSA, 0.1 mg/mL bacitracin, 0.05 mg/mL aprotinin, 1 mM PMSF), pH 7.4, 4° C. and resuspended at a density of 3×10^6 cells/mL.
A 0.5 mL Eppendorf tube was prepared for each assay point by incubating the tube overnight with a blocking solution of 1% BSA, 50 mM Tris. HCl, 100 mM NaCl, pH 7.4. The blocking solution was removed.
Each tube was charged with 4×10^4 cells. […] Three control tubes with no cells or competitor were prepared for measurement of total counts added.
The samples were incubated for 30 min at RT. The contents of each tube were transferred into the wells of a 96-well filter bottom plate (Millipore Multiscreen, Arlington Heights, Mass.) and filtered under moderate vacuum (water aspirator). Each filter was washed three times by filling each well with ice cold PBS, Ph 7.4, 0.1% BSA. The plate was allowed to dry. Dried filters were placed into gamma-counter tubes (12×75 mm glass). The radioactivity on each filter and in the control tubes was counted using a LKB gamma counter. The bound/total added for each assay tube was calculated.

[2] = system: HT-29 colon carcinoma xenograft tumors; conditions: Tc-99m labeled, i.v., 22 hours after injection
Experimental: Biodistribution and imaging studies were conducted using female Nu/Nu HT-29 xenograft tumor-bearing mice, a model for colon carcinoma. […] Two μg of the test compounds were labeled with 100 μCi of Tc-99m and each was injected into 10 Nu/Nu mice bearing HT-29 tumors on the flank. The organs of interest were removed from half the mice at 3 hr, and the organs of the remaining mice were removed at 22 h. Each set of organs were counted for gamma radiation.
Twenty μg of each construct was dissolved in 20 mM sodium acetate, pH 4.5, at a minimum concentration of 30 μg/mn. The pH was checked and adjusted as necessary. A 50 mCi vial of ^99m TcO4 Na (Syncor) was added to a vial of Glucoscan® (Dupont) in a leaded glass shield using a shielded tuberculin syringe. 100 μL of the resulting solution was dose calibrated, and the volume required for 20 doses of 100 μCi was calculated (ca. 40-45 μL). This amount was divided into two equal parts and added to the two solutions of construct in microfuge tubes and incubated for 1 h at 37° C. Percent chelation was checked by chromatography on ITLC developed with 0.9% saline, and analyzed by autoradiography counter. The two solutions were diluted to 2.2 mL each with 0.9% saline. The diluted solutions werethen divided into numbered tuberculin syringes (200 μL each). […]
Dissected tissues were weighed, and their content of Tc-99m was determined by gamma counting.

T1 sequence (P21729 whole entry): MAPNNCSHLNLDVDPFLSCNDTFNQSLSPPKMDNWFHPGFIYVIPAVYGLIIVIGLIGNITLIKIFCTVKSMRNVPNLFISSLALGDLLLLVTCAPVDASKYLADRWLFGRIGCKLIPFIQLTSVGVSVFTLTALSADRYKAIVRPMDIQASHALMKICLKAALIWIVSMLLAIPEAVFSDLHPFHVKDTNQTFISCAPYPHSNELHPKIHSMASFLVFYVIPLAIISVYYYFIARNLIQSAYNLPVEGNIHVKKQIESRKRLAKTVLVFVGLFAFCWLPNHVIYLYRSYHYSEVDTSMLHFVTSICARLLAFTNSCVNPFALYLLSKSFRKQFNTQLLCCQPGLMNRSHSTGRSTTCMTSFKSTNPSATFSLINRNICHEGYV

Row | Substance | IC50 [1] [nM] | Binding of competing ligand relative to control ligand Neuromedin C [1] | Localization to HT-29 tumors [2]
1 | Benzoic acid bis-thiosemicarbazide derived from N-acetyl-Neuromedin C-hydrazide [Compound 6] | 43.3 | within an order of magnitude of the control ligand Neuromedin C | evident
2 | Benzoic acid bis-thiourea derived from Neuromedin-C [Compound 3] | 10.6 | within an order of magnitude of the control ligand Neuromedin C | evident
